From ChEMBL document CHEMBL5357005, “Discovery and Heterologous Production of Tetrapetalones Provide Insights into the Formation of the Tetracyclic System” (J Nat Prod, 2024)
Activity calls are given as the source filed them.

Key:
Candida albicans = experiment: Antifungal activity against Candida albicans 5314 assessed as reduction in microbial growth measured for 48 hrs by paper disc diffusion method; assay type: functional, organism-based
Staphylococcus aureus = experiment: Antimicrobial activity against Staphylococcus aureus ATCC 25923 assessed as reduction in microbial growth measured for 24 hrs by paper disc diffusion method; assay type: functional, organism-based
Pseudomonas aeruginosa = experiment: Antimicrobial activity against Pseudomonas aeruginosa PA01 assessed as reduction in microbial growth measured for 24 hrs by paper disc diffusion method; assay type: functional, organism-based
SW480 = experiment: Cytotoxicity against human SW480 cells assessed as reduction in cell viability at 50 uM by sulfonyl rhodamine B colorimetry analysis; assay type: functional, cell-based
Salmonella typhimurium = experiment: Antimicrobial activity against Salmonella enterica subsp. enterica serovar Typhimurium assessed as reduction in microbial growth measured for 24 hrs by paper disc diffusion method; assay type: functional, organism-based
HCT-116 = experiment: Cytotoxicity against human HCT-116 cells assessed as reduction in cell viability at 50 uM by sulfonyl rhodamine B colorimetry analysis; assay type: functional, cell-based

Measured: Activity

CC1=C[C@@]2(CO)C(O)=C(C)C(=O)N2C2=CC(=O)C=C3[C@@H](O[C@@H]4CC[C@H](O)[C@H](C)O4)[C@H](C)[C@@H]1[C@]32O
inactive: all assays above

CC1=C[C@@]2(C)C(O)=C(C)C(=O)N2C2=CC(=O)C=C3[C@@H](O[C@H]4O[C@H](C)[C@@H](O)[C@H](O)[C@@H]4O)[C@H](C)[C@@H]1[C@]32O
inactive: all assays above

CC1=C[C@@]2(C)C(O)=C(C)C(=O)N2C2=CC(=O)C=C3[C@@H](O)[C@H](C)[C@@H]1[C@]32O
inactive: all assays above

CC[C@@]12C=C(C)[C@@H]3[C@@H](C)[C@H](O[C@@H]4CC[C@H](O)[C@H](C)O4)C4=CC(=O)C=C(N1C(=O)C(C)=C2O)[C@@]43O
inactive: all assays above

CC[C@@]12C=C(C)[C@@H]3[C@@H](C)[C@H](O)C4=CC(=O)C=C(N1C(=O)C(C)=C2O)[C@@]43O
inactive: all assays above

CC1=C[C@@]2(C)C(O)=C(C)C(=O)N2C2=CC(=O)C=C3[C@@H](O[C@@H]4CC[C@H](O)[C@H](C)O4)[C@H](C)[C@@H]1[C@]32O
inactive: all assays above

CC1=C[C@H]2C(O)=C(C)C(=O)N2C2=CC(=O)C=C3[C@@H](O[C@@H]4CC[C@H](O)[C@H](C)O4)[C@H](C)[C@@H]1[C@]32O
inactive: all assays above

CC[C@@]12C=C(C)[C@@H]3[C@@H](C)[C@H](O[C@H]4O[C@H](C)[C@@H](O)[C@H](O)[C@@H]4O)C4=CC(=O)C=C(N1C(=O)C(C)=C2O)[C@@]43O
inactive: all assays above
